# In patent publication US20220411372A1, “SMALL-MOLECULE INHIBITORS FOR THE B-CATENIN/B-CELL LYMPHOMA 9 PROTEIN-PROTEIN INTERACTION” (H. Lee Moffitt Cancer Center and Research Institute, Inc., priority 2019, published 2022):
# Molecular target: T1, β-catenin/BCL9 PPI (Homo sapiens, UniProt P35222)
# T1 construct: Full-length β-catenin (residues 1-781) were cloned into a pET-28b vector; made in house; host or cells: E. coli BL21 DE3 (β-catenin); BCL9 peptide synthesized by InnoPep Inc
# T1 sequence (P35222 1-781): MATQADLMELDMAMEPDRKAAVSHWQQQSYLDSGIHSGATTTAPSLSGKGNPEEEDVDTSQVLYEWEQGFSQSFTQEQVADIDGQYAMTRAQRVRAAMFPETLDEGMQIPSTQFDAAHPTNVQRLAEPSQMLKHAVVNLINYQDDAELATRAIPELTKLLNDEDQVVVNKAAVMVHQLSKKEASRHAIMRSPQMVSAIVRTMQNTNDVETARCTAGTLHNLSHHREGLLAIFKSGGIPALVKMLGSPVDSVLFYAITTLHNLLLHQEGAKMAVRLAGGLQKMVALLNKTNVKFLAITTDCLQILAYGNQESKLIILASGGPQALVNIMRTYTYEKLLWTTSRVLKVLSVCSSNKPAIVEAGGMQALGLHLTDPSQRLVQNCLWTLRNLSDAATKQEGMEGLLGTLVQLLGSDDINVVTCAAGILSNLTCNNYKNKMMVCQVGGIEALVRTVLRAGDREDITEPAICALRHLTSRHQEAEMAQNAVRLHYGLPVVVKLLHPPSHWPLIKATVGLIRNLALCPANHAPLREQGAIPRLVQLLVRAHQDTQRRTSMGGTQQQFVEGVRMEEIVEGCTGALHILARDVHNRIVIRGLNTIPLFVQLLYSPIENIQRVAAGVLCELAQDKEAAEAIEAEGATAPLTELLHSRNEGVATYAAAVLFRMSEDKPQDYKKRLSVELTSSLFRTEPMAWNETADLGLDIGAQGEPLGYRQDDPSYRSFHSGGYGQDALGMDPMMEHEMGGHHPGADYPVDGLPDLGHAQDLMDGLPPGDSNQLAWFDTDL
# Test: AlphaScreen competitive inhibition assay of the β-catenin/BCL9 PPI
# Format: binding
# Settings: Table 8, inhibitors 82-92; read-out: Ki
# Method in brief: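 5 nM biotinylated BCL9 and 40 nM His6-β-catenin preincubated 30 min at 4° C in pH 7.4 Hepes buffer with 0.01% Triton X-100, 0.1% BSA, 1% DMSO; inhibitor added 1 h at 4° C, then 10 μg/mL donor/acceptor beads 1 h.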
row,Ki,Molecule
1,< 30 µM,"O=C(C(Oc1cccc(N2CCC[C@@H](C(=O)N(Cc3ccc(-c4cn[nH]c4)cc3)C3CC3)C2)c1)c1ccccc1)N1CCNCC1 (stereo partly drawn) [Compound 86, 4-(2-(3-((R)-3-((4-(1H-pyrazol-4-yl)benzyl)(cyclopropyl)carbamoyl)piperidin-1-yl)phenoxy)-2-phenylacetyl)piperazin-1-ium chloride]"
2,< 90 µM,"O=C(C(Cc1ccccc1)Oc1cccc(N2CCC[C@@H](C(=O)N(Cc3ccc(-c4cn[nH]c4)cc3)C3CC3)C2)c1)N1CCNCC1 (stereo partly drawn) [Compound 87, 4-(2-(3-((R)-3-((4-(1H-pyrazol-4-yl)benzyl)(cyclopropyl)carbamoyl)piperidin-1-yl)phenoxy)-3-phenylpropanoyl)piperazin-1-ium chloride]"
3,< 90 µM,"CC(C)(Oc1cccc(N2CCC[C@@H](C(=O)N(Cc3ccc(-c4cn[nH]c4)cc3OCCN)C3CC3)C2)c1)C(=O)N1CCNCC1 [Compound 89, (R)-4-(2-(3-(3-((2-(2-ammonioethoxy)-4-(1H-pyrazol-4-yl)benzyl)(cyclopropyl)carbamoyl)piperidin-1-yl)phenoxy)-2-methylpropanoyl)piperazin-1-ium chlorine]"
4,< 30 µM,"CC(C)c1ccc2c(c1)CCN(C(=O)[C@@H]1CCCN(c3cccc(OC(C)(C)C(=O)N4CCNCC4)c3)C1)C2 [Compound 90, (R)-4-(2-(3-(3-(6-isopropyl-1,2,3,4-tetrahydroisoquinoline-2-carbonyl)piperidin-1-yl)phenoxy)-2-methylpropanoyl)piperazin-1-ium chlorine]"
5,< 5 µM,"CC(C)(Oc1cccc(N2CCC[C@@H](C(=O)N3CCc4cc(-c5ccccc5)ccc4C3)C2)c1)C(=O)N1CCNCC1 [Compound 91, (R)-4-(2-methyl-2-(3-(3-(6-phenyl-1,2,3,4-tetrahydroisoquinoline-2-carbonyl)piperidin-1-yl)phenoxy)propanoyl)piperazin-1-ium chlorine]"
6,< 90 µM,"CC(C)(Oc1cccc(N2CCC[C@@H](C(=O)N3CCc4cc(-c5cn[nH]c5)ccc4C3)C2)c1)C(=O)N1CCNCC1 [Compound 92, (R)-4-(2-(3-(3-(6-(1H-pyrazol-4-yl)-1,2,3,4-tetrahydroisoquinoline-2-carbonyl)piperidin-1-yl)phenoxy)-2-methylpropanoyl)piperazin-1-ium chloride]"

# Same assay, conditions: Table 9, inhibitors 93-98, racemic; read-out: Ki
row,Ki,Molecule
1,≤ 90 µM,(R)-2-(3-(3-(cyclopropyl(4-isopropylbenzyl)carbamoyl)piperidin-1-yl)phenoxy)-2-methylpropanoic acid [Compound 98]

# Same assay, conditions: Table 12, inhibitors 109-112; read-out: Ki
row,Ki,Molecule
1,≤ 30 µM,"CCOc1cc(-c2cn[nH]c2)ccc1CN(C(=O)[C@@H]1CCCN(c2cccc(OC(C)(C)C(=O)N3CCNCC3)c2)C1)C1CC1 [Compound 109, (R)-4-(2-(3-(3-(Cyclopropyl(2-ethoxy-4-(1H-pyrazol-4-yl)benzyl)carbamoyl)piperidin-1-yl)phenoxy)-2-methylpropanoyl)piperazin-1-ium chloride]"
2,≤ 30 µM,"CC(C)Oc1cc(-c2cn[nH]c2)ccc1CN(C(=O)[C@@H]1CCCN(c2cccc(OC(C)(C)C(=O)N3CCNCC3)c2)C1)C1CC1 [Compound 110, (R)-4-(2-(3-(3-(Cyclopropyl(2-isopropoxy-4-(1H-pyrazol-4-yl)benzyl)carbamoyl)piperidin-1-yl)phenoxy)-2-methylpropanoyl)piperazin-1-ium chloride]"
3,≤ 30 µM,"CCCOc1cc(-c2cn[nH]c2)ccc1CN(C(=O)[C@@H]1CCCN(c2cccc(OC(C)(C)C(=O)N3CCNCC3)c2)C1)C1CC1 [Compound 111, (R)-4-(2-(3-(3-(Cyclopropyl(2-propoxy-4-(1H-pyrazol-4-yl)benzyl)carbamoyl)piperidin-1-yl)phenoxy)-2-methylpropanoyl)piperazin-1-ium chloride]"
4,≤ 30 µM,"CC(C)(Oc1cncc(N2CCC[C@@H](C(=O)N(Cc3ccc(-c4cn[nH]c4)cc3)C3CC3)C2)c1)C(=O)N1CCNCC1 [Compound 112, (R)-4-(2-((5-(3-((4-(1H-pyrazol-4-yl)benzyl)(cyclopropyl)carbamoyl)piperidin-1-yl)pyridin-3-yl)oxy)-2-methylpropanoyl)piperazin-1-ium chloride]"
